ChEMBL document CHEMBL1201862, “PubChem BioAssay data set” (2004)
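Cells were grown in 96-well plates and exposed to each compound for 48 hours at five concentrations; endpoints were interpolated linearly between bracketing concentrations, or set to the highest concentration if not reached. GI50 is the concentration that inhibits growth by half.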 The source made the active and inactive calls. No stated cut-off is given here; in the data, active = GI50 up to about 1.1 µM and inactive = higher.

Assays:
Experiment in all cases: inhibition of tumour cell growth, NCI panel, 48 h
A498 = tested on: A498
A549 = tested on: A549
CAKI-1 = tested on: CAKI-1
COLO 205 = tested on: COLO 205
Hs-578T = tested on: Hs-578T
K562 = tested on: K562
MDA-MB-435 = tested on: MDA-MB-435
NCI-H226 = tested on: NCI-H226
NCI-H23 = tested on: NCI-H23
NCI-H460 = tested on: NCI-H460
NCI/ADR-RES = tested on: NCI/ADR-RES
OVCAR-8 = tested on: OVCAR-8
PC-3 = tested on: PC-3
RPMI-8226 = tested on: RPMI-8226
RXF 393 = tested on: RXF 393
SK-MEL-5 = tested on: SK-MEL-5
SR = tested on: SR
UACC-257 = tested on: UACC-257
SK-MEL-2 = tested on: SK-MEL-2
T47D = tested on: T47D

Compound | GI50 (A498) | GI50 (A549) | GI50 (CAKI-1) | GI50 (COLO 205) | GI50 (Hs-578T) | GI50 (K562) | GI50 (MDA-MB-435) | GI50 (NCI-H226) | GI50 (NCI-H23) | GI50 (NCI-H460) | GI50 (NCI/ADR-RES) | GI50 (OVCAR-8) | GI50 (PC-3) | GI50 (RPMI-8226) | GI50 (RXF 393) | GI50 (SK-MEL-5) | GI50 (SR) | GI50 (UACC-257) | GI50 (SK-MEL-2) | GI50 (T47D)
O=[N+]([O-])c1ccc(/C=C/c2cc(-c3ccccc3)nc3ccc4ccccc4c23)cc1 | > 100 µM (inactive) | > 100 µM (inactive) | > 100 µM (inactive) | > 100 µM (inactive) | > 100 µM (inactive) | > 100 µM (inactive) | > 100 µM (inactive) | > 100 µM (inactive) | > 100 µM (inactive) | > 100 µM (inactive) | > 100 µM (inactive) | > 100 µM (inactive) | > 100 µM (inactive) | > 100 µM (inactive) | > 100 µM (inactive) | > 100 µM (inactive) | > 100 µM (inactive) | > 100 µM (inactive) | – | –
O=C1CN(c2cccc(Cl)c2)C(=O)CN1NCNN1CC(=O)N(c2cccc(Cl)c2)CC1=O | > 100 µM (inactive) | > 100 µM (inactive) | > 100 µM (inactive) | > 100 µM (inactive) | > 100 µM (inactive) | – | > 100 µM (inactive) | – | > 100 µM (inactive) | > 100 µM (inactive) | – | > 100 µM (inactive) | > 100 µM (inactive) | > 100 µM (inactive) | > 100 µM (inactive) | > 100 µM (inactive) | > 100 µM (inactive) | > 100 µM (inactive) | – | –
COc1cc(/C=C2\N=C(c3ccccc3)N(c3nc4ccc(Sc5ccccc5)cc4[nH]3)C2=O)ccc1O | 21.3 µM (inactive) | 30.5 µM (inactive) | 23.9 µM (inactive) | 18 µM (inactive) | 32.4 µM (inactive) | 11.7 µM (inactive) | 3.56 µM (inactive) | – | 26.8 µM (inactive) | 19.5 µM (inactive) | 18.7 µM (inactive) | 27.6 µM (inactive) | 24.4 µM (inactive) | 16.7 µM (inactive) | 28.5 µM (inactive) | 14.7 µM (inactive) | – | 18 µM (inactive) | 13.5 µM (inactive) | 27 µM (inactive)
COc1ccc(N2C(=O)CC(c3c[nH]c4ccccc34)C2=O)cc1 (stereo not given) | > 100 µM (inactive) | > 100 µM (inactive) | > 100 µM (inactive) | > 100 µM (inactive) | 9.08 µM (inactive) | > 100 µM (inactive) | > 100 µM (inactive) | > 100 µM (inactive) | > 100 µM (inactive) | > 100 µM (inactive) | 97.3 µM (inactive) | > 100 µM (inactive) | > 100 µM (inactive) | > 100 µM (inactive) | > 100 µM (inactive) | > 100 µM (inactive) | > 100 µM (inactive) | > 100 µM (inactive) | > 100 µM (inactive) | –
COC(=O)[C@@H]1C=C[C@@H](C#N)n2c(=O)n(-c3ccccc3)c(=O)n21 | 41.1 µM (inactive) | – | 98.9 µM (inactive) | 40.3 µM (inactive) | 23.7 µM (inactive) | 37.9 µM (inactive) | 42 µM (inactive) | 15.6 µM (inactive) | 36.9 µM (inactive) | – | 26.4 µM (inactive) | 23.3 µM (inactive) | – | 31.8 µM (inactive) | – | 46.3 µM (inactive) | 20.6 µM (inactive) | 39.4 µM (inactive) | – | 24.2 µM (inactive)
O=C(O)COc1ccc(C(=O)/C(SS/C(C(=O)c2ccc(OCC(=O)O)c(Cl)c2Cl)=C2\C=C(c3ccc(F)cc3)SS2)=C2/C=C(c3ccc(F)cc3)SS2)c(Cl)c1Cl | 31.7 µM (inactive) | 40.4 µM (inactive) | 33.5 µM (inactive) | 6.76 µM (inactive) | 3.83 µM (inactive) | 4.22 µM (inactive) | 49.4 µM (inactive) | 15.1 µM (inactive) | 13.2 µM (inactive) | 21.7 µM (inactive) | – | 14 µM (inactive) | – | 10.1 µM (inactive) | – | 17.5 µM (inactive) | 3.76 µM (inactive) | 27.5 µM (inactive) | 15.6 µM (inactive) | 3.13 µM (inactive)
COC1/C=C\C=C(/C)C(=O)Nc2cc3nc4ccc(Br)cc4oc-3c(c2=O)CC(C)CC(OC)C(O)C(C)/C=C(\C)C1OC(N)=O (stereo not given) | 13.5 µM (inactive) | 3.61 µM (inactive) | 0.292 µM (active) | 0.01 µM (active) | 0.0628 µM (active) | 0.01 µM (active) | 0.00389 µM (active) | 1.75 µM (inactive) | – | 0.63 µM (active) | – | 0.09 µM (active) | 0.931 µM (active) | 0.119 µM (active) | < 0.0112 µM (active) | 0.178 µM (active) | 0.0116 µM (active) | 0.0556 µM (active) | 0.0741 µM (active) | 0.00277 µM (active)
OCC1OC(Oc2cc(O)cc(/C=C\c3ccc(O)cc3)c2)C(O)C(O)C1O (stereo not given) | > 100 µM (inactive) | > 100 µM (inactive) | > 100 µM (inactive) | – | > 100 µM (inactive) | > 100 µM (inactive) | > 100 µM (inactive) | > 100 µM (inactive) | – | > 100 µM (inactive) | > 100 µM (inactive) | > 100 µM (inactive) | > 100 µM (inactive) | > 100 µM (inactive) | > 100 µM (inactive) | > 100 µM (inactive) | > 100 µM (inactive) | > 100 µM (inactive) | > 100 µM (inactive) | –
CC(=O)c1nc2ccccc2n1C(C)C(=O)c1ccccc1 (stereo not given) | > 100 µM (inactive) | 27.1 µM (inactive) | 61.5 µM (inactive) | > 100 µM (inactive) | 81.1 µM (inactive) | 36.5 µM (inactive) | 52.7 µM (inactive) | > 100 µM (inactive) | > 100 µM (inactive) | 33 µM (inactive) | 46 µM (inactive) | 23.1 µM (inactive) | 72.1 µM (inactive) | 51.6 µM (inactive) | > 100 µM (inactive) | – | 36.3 µM (inactive) | 54.6 µM (inactive) | – | –
CC(=O)OCC1OC(n2c3c(c(-c4cccc5ccccc45)c(C#N)c2=S)CCCC3)C(OC(C)=O)C(OC(C)=O)C1OC(C)=O (stereo not given) | > 100 µM (inactive) | > 100 µM (inactive) | – | > 100 µM (inactive) | – | > 100 µM (inactive) | > 100 µM (inactive) | > 100 µM (inactive) | > 100 µM (inactive) | > 100 µM (inactive) | > 100 µM (inactive) | > 100 µM (inactive) | 27.7 µM (inactive) | – | > 100 µM (inactive) | > 100 µM (inactive) | > 100 µM (inactive) | > 100 µM (inactive) | 20.7 µM (inactive) | > 100 µM (inactive)
COc1cc2c(cc1OCCCN1C(=O)c3cccc4cccc(c34)C1=O)N=C[C@@H]1CCCN1C2=O | > 100 µM (inactive) | > 100 µM (inactive) | 25.4 µM (inactive) | 18.5 µM (inactive) | – | 22.5 µM (inactive) | 40.1 µM (inactive) | 34.4 µM (inactive) | 34 µM (inactive) | 22.3 µM (inactive) | 41.8 µM (inactive) | 36.6 µM (inactive) | 44.8 µM (inactive) | 18.2 µM (inactive) | 14.9 µM (inactive) | 20.4 µM (inactive) | 1.26 µM (inactive) | 40.1 µM (inactive) | 65.5 µM (inactive) | 19.5 µM (inactive)
